Results from US20080096894A1, “Anti-Bacterial Compounds” (ASTON UNIVERSITY, priority 2005, published 2008).
Where a name gives a salt, the structure may show the parent alone. Read-outs that look alike come from different tables or passages of the source.

What was measured:
[1] = test system: Moraxella catarrhalis; experiment: MIC, doubling dilution in 96-well microtitre plate; type: cell-based
Method: (§1) The compound was tested as follows. […] The wells were inoculated with organism ([…] of medium containing 10^6 cfu/mL) and the plates were incubated at 37° C. overnight. Where growth of organism occurred this was observed as a small button when viewed from underneath the plate. The MIC was determined as the lowest concentration inhibiting growth.

[2] = test system: Micrococcus luteus; experiment: MIC, doubling dilution in 96-well microtitre plate; type: cell-based
Method: as §1

[3] = test system: Micrococcus roseus; experiment: MIC, doubling dilution in 96-well microtitre plate; type: cell-based
Method: as §1

[4] = test system: Bacillus cereus; experiment: MIC, doubling dilution in 96-well microtitre plate; type: cell-based
Method: as §1

[5] = test system: Bacillus megarerium; experiment: MIC, doubling dilution in 96-well microtitre plate; type: cell-based
Method: as §1

[6] = test system: Bacillus subtilis; experiment: MIC, doubling dilution in 96-well microtitre plate; type: cell-based
Method: as §1

[7] = test system: Enterococcus faecium; experiment: MIC, doubling dilution in 96-well microtitre plate; type: cell-based; conditions: Enterococcus faecium ATCC 10541
Method: as §1

[8] = test system: MRSA; experiment: MIC, agar dilution, multipoint inoculator; type: cell-based, methicillin-resistant Staphylococcus aureus
Outline: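 Agar dilution MIC on Mueller Hinton agar, multipoint inoculator delivering 10^4 colony forming units per spot. MRSA values are ranges across ten clinical MRSA strains; S. aureus NCTC 6571 as reference strain.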

[9] = test system: S. epidemisis; experiment: MIC, agar dilution, multipoint inoculator; type: cell-based, Staphylococcus epidermidis; conditions: Staphylococcus epidermidis
Outline: (§2)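 Compounds were serially incorporated into Mueller Hinton agar, then each strain was spotted by multipoint inoculator at 10^4 colony forming units per spot. MIC was determined from the dilution series.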

[10] = test system: E. cloacae; experiment: MIC, agar dilution, multipoint inoculator; type: cell-based, Enterobacter cloacae; conditions: Enterobacter cloacae, NCTC11582, 18 h
Outline: as §2

[11] = test system: E. faecium; experiment: MIC, agar dilution, multipoint inoculator; type: cell-based, Enterococcus faecium; conditions: Enterococcus faecium
Outline: as §2

[12] = test system: E. coli; experiment: MIC, agar dilution, multipoint inoculator; type: cell-based, Escherichia coli
Outline: as §2

[13] = test system: vancomycin resistant enterococci; experiment: MIC, agar dilution, multipoint inoculator; type: cell-based
Method: This activity was measured using a multipoint inoculator method as follows. The MIC for each compound was measured using an agar dilution method (Onda, H., et al., Int. J. Antimicrob. Agents. 18, 263 (2001)) (Mueller Hinton agar) by means of a multipoint inoculator delivering 10^4 colony forming units per spot.
It will be noted that compound 4PYcq was active against all strains of MRSA as well as all other Gram positive bacteria. For this reason it was further tested against some vancomycin resistant enterococci, using the multipoint inoculator method described above. It can be seen from Table 5 that the high level activity was retained.

[14] = test system: P. auriginosa; experiment: MIC, agar dilution, multipoint inoculator; type: cell-based, Pseudomonas aeruginosa; conditions: Pseudomonas aeruginosa, NCTC6749, 18 h
Outline: as §2

[15] = test system: S. aureus; experiment: MIC, agar dilution, multipoint inoculator; type: cell-based, Staphylococcus aureus; conditions: Staphylococcus aureus
Outline: as §2

[16] = test system: S. marcesens; experiment: MIC, agar dilution, multipoint inoculator; type: cell-based, Serratia marcescens; conditions: Serratia marcescens, 18 h
Outline: as §2

[17] = test system: S. aboni; experiment: MIC, agar dilution, multipoint inoculator; type: cell-based; conditions: S. aboni NCTC 6017; upper value of MIC reading
Outline: as §2

[18] = test system: S. maltophilia; experiment: MIC, agar dilution, multipoint inoculator; type: cell-based; conditions: Stenotrophomonas maltophilia, NCTC10257, 18 h
Outline: as §2

[19] = test system: B. bronchiseptica; experiment: MIC, agar dilution, multipoint inoculator; type: cell-based; conditions: Bordetella bronchiseptica, NCTC8344, 18 h
Outline: as §2

[20] = test system: E. faecalis; experiment: MIC, agar dilution, multipoint inoculator; type: cell-based; conditions: Enterococcus faecalis, upper value of MIC reading
Outline: as §2

[21] = test system: S. haemolyticus; experiment: MIC, agar dilution, multipoint inoculator; type: cell-based; conditions: Staphylococcus haemolyticus, 18 h
Outline: as §2

[22] = test system: K. pneumoniae; experiment: MIC, agar dilution, multipoint inoculator; type: cell-based, Klebsiella pneumoniae; conditions: Klebsiella pneumoniae, 18 h
Outline: as §2

[23] = test system: Enterococcus faecalis NCTC 5957; experiment: MIC, doubling dilution in 96-well microtitre plate; type: cell-based
Method: as §1

[24] = test system: Staphylococcus aureus NCTC 10788; experiment: MIC, doubling dilution in 96-well microtitre plate; type: cell-based
Method: as §1

[25] = test system: Staphylococcus aureus (MRSA) 96-7475; experiment: MIC, doubling dilution in 96-well microtitre plate; type: cell-based
Method: as §1

[26] = test system: Staphylococcus aureus W11 MRSA; experiment: MIC, doubling dilution in 96-well microtitre plate; type: cell-based
Method: as §1

[27] = test system: Streptococcus bovis NCTC 11436; experiment: MIC, doubling dilution in 96-well microtitre plate; type: cell-based
Method: as §1

[28] = test system: Staphylococcus aureus NCTC 6571; experiment: MIC, doubling dilution in 96-well microtitre plate; type: cell-based
Method: as §1

[29] = test system: Staphylococcus epidermidis NCTC 11047; experiment: MIC, doubling dilution in 96-well microtitre plate; type: cell-based
Method: as §1

[30] = test system: E. faecium isolates; conditions: against 86% of E. faecium isolates; cited from earlier work
[31] = test system: human mononuclear leucocytes (MNL, white blood cells); conditions: rat liver microsomes added; Coleman et al 1999; cited from earlier work
[32] = test system: human mononuclear leucocytes (MNL, white blood cells); experiment: direct leucocyte toxicity, tryptan blue exclusion, 18 hours; type: cell-based; conditions: human, 18 h, 1 mM
Method: The in vitro assay used human mononuclear leucocytes (MNL, white blood cells) which were incubated with the test compound for 18 hours and cell death determined by tryptan blue exclusion (tryptan blue is a dye, which stains dead cells, whilst living cells extrude it).
The toxicity of 4PYcq and the aldehyde cq and pyridine-4-carboxamidrazone precursors were assessed using the same in vitro assay with human mononuclear leucocytes as that described above. The toxicity of related compounds, 2-hydroxybenzylidene-pyridine-2-carboxamidrazone 4PYbw and benzylidenepyridine-2-carboxamidrazone 4PYaa were also examined.

CC(C)(C)c1ccc(O)c(C=NN=C(N)c2cc[n+]([O-])cc2)c1 [Compound 4PYOfe]
MIC [1]: 8 to 16 µg/mL
MIC [2]: 8 to 16 µg/mL

CC(C)(C)c1ccc(C=NN=C(N)c2cc[n+]([O-])cc2)cc1 [Compound 4PYOfb]
MIC [3]: 8 to 16 µg/mL
MIC [1]: 32 to 64 µg/mL
MIC [4]: 16 to 32 µg/mL
MIC [5]: 16 to 32 µg/mL
MIC [6]: 8 to 16 µg/mL
MIC [7]: 16 to 32 µg/mL

NC(=NN=Cc1ccccc1Sc1ccc(Cl)cc1)c1cc[n+]([O-])cc1 [Compound 4PYOeh]
MIC [3]: 32 to 64 µg/mL
MIC [1]: 64 to 128 µg/mL

CN[C@H](CC(C)C)C(=O)N[C@H]1C(=O)N[C@@H](CC(N)=O)C(=O)N[C@H]2C(=O)N[C@H]3C(=O)N[C@H](C(=O)N[C@H](C(=O)O)c4cc(O)cc(O)c4-c4cc3ccc4O)[C@H](O)c3ccc(c(Cl)c3)Oc3cc2cc(c3O[C@@H]2O[C@H](CO)[C@@H](O)[C@H](O)[C@H]2O[C@H]2C[C@](C)(N)[C@H](O)[C@H](C)O2)Oc2ccc(cc2Cl)[C@H]1O [Vanc., Vancomycin hydrochloride, reference compound]
MIC ([8]; MRSA Isolate 1, upper value of MIC reading, in µg/mL): 0.12
MIC ([8]; MRSA Isolate 2, upper value of MIC reading, in µg/mL): 0.12
MIC ([8]; MRSA Isolate 3, upper value of MIC reading, in µg/mL): 0.12
MIC ([8]; MRSA Isolate 4, upper value of MIC reading, in µg/mL): 0.12
MIC ([8]; MRSA Isolate 5, upper value of MIC reading, in µg/mL): 0.12
MIC ([8]; MRSA Isolate 6, upper value of MIC reading, in µg/mL): 0.12
MIC ([8]; MRSA Isolate 7, upper value of MIC reading, in µg/mL): 0.12
MIC ([8]; MRSA Isolate 8, upper value of MIC reading, in µg/mL): 0.12
MIC ([8]; MRSA Isolate 9, upper value of MIC reading, in µg/mL): 0.12
MIC ([8]; Staphylococcus aureus, 18 h): 0.12 µg/mL
MIC ([9]; 18 h): 8 µg/mL
MIC ([9]; NCTC11047, 18 h): 8 µg/mL
MIC [10]: > 16 µg/mL
MIC ([11]; 18 h): 0.12 µg/mL
MIC ([11]; NCTC7171, 18 h): 0.12 µg/mL
MIC ([12]; E. coli W3110R+, upper value of MIC reading): > 16 µg/mL
MIC ([12]; Escherichia coli, 18 h): > 16 µg/mL
MIC ([13]; Culture 3001562): 4 to 8 µg/mL
MIC ([13]; Culture 3002043): 4 to 8 µg/mL
MIC ([13]; Culture 3002066): 4 to 8 µg/mL
MIC ([13]; Culture 3005323): > 16 µg/mL
MIC ([13]; Culture 3005426): 4 to 8 µg/mL
MIC ([13]; Culture 3102095): > 16 µg/mL
MIC ([13]; Culture 30053530): > 16 µg/mL
MIC [14]: > 16 µg/mL
MIC ([15]; 18 h): 0.25 µg/mL
MIC ([15]; NCTC6571, 18 h): 0.05 µg/mL
MIC ([15]; NCTC10788, 18 h): 0.12 µg/mL
MIC [16]: > 16 µg/mL
MIC [17]: 0.05 µg/mL
MIC [18]: > 16 µg/mL
MIC [19]: > 16 µg/mL
MIC ([20]; 18 h, E. faecalis EBH1): 0.12 µg/mL
MIC ([20]; 18 h, E. faecalis Isolate 1): 0.25 µg/mL
MIC ([20]; 18 h, E. faecalis Isolate 2): 0.25 µg/mL
MIC ([20]; 18 h, E. faecalis Isolate 3): 0.12 µg/mL
MIC ([20]; 18 h, E. faecalis Isolate 4): 16 µg/mL
MIC ([20]; 18 h, E. faecalis Isolate 5): 2 µg/mL
MIC ([20]; NCTC5957, 18 h, E. faecalis NCTC 5957): 0.25 µg/mL
MIC [21]: 8 µg/mL
MIC [22]: > 16 µg/mL

NC(=NN=Cc1c2ccccc2cc2ccccc12)c1cc[n+]([O-])cc1 [Compound 4PYOam]
MIC [3]: 32 to 64 µg/mL
MIC [6]: 64 to 128 µg/mL
MIC [7]: 64 to 128 µg/mL
MIC [23]: 64 to 128 µg/mL

CC(=O)Nc1ccc(C=NN=C(N)c2cc[n+]([O-])cc2)cc1 [Compound 4PYOfa]
MIC [3]: 16 to 32 µg/mL
MIC [4]: 8 to 16 µg/mL
MIC [5]: 16 to 32 µg/mL
MIC [6]: 4 to 8 µg/mL
MIC [7]: 16 to 32 µg/mL

CC(C)(C)c1cc(C=NN=C(N)c2cc[n+]([O-])cc2)cc(C(C)(C)C)c1 [Compound 4PYOff]
MIC [1]: 16 to 32 µg/mL
MIC [24]: 32 to 64 µg/mL
MIC [25]: 32 to 64 µg/mL
MIC [4]: 32 to 64 µg/mL
MIC [6]: 32 to 64 µg/mL
MIC [26]: 32 to 64 µg/mL
MIC [7]: 32 to 64 µg/mL
MIC [27]: 32 to 64 µg/mL
MIC [2]: 32 to 64 µg/mL
MIC [28]: 32 to 64 µg/mL
MIC [29]: 32 to 64 µg/mL
MIC [23]: 32 to 64 µg/mL

NC(=NN=Cc1cccc2ccccc12)c1cc[n+]([O-])cc1 [Compound 4PYOal]
MIC [3]: 16 to 32 µg/mL
MIC [1]: 16 to 32 µg/mL
MIC [4]: 8 to 16 µg/mL
MIC [5]: 16 to 32 µg/mL
MIC [6]: 16 to 32 µg/mL
MIC [7]: 16 to 32 µg/mL
MIC [2]: 16 to 32 µg/mL

quinupristin/dalfopristin
MIC [30]: ≤ 2 µg/mL

CC(C)(C)c1cccc(C=NN=C(N)c2cc[n+]([O-])cc2)c1O [Compound 4PYOfg]
MIC [1]: 4 to 8 µg/mL
MIC [27]: 32 to 64 µg/mL
MIC [2]: 8 to 16 µg/mL

N/C(=N\N=C\c1cccc2ccccc12)c1ccccn1 [Compound 2PYal]
cytotoxicity in the presence of the metabolising system (in words) [31]: marked reduction in cytotoxicity
% Leucocyte Death [32]: 17.1 ± 4.9%
MIC ([8]; Staphylococcus aureus, MRSA, 18 h, panel of ten MRSA strains (clinical isolates), read-out: MRSA MIC range): > 256 µg/mL
